Patent US20200277262A1, “N-(CYANO-SUBSTITUTED BENZYL OR PYRIDINYLMETHYL)-3-HYDROXYPICOLINAMIDE DERIVATIVES” (Takeda Pharmaceutical Company Limited, priority 2017, published 2020)

Key:
[1] = target: T1, PHD2 enzyme (residues 181-417) (Homo sapiens, UniProt Q9GZT9); assay: Inhibition of PHD2 Enzyme (LC/MS detection of hydroxylated peptide); assay type: biochemical; conditions: 5 nM enzyme, 1 μM biotin-labeled peptide, 2 μM 2-oxoglutarate, 60 min pre-incubation, pH 7.3; -log(IC50), IC50 molar; read-out: Inhibition of PHD2 (pIC50) (converted)
T1 construct: The IC50 values for the PHD2 enzyme (residues 181-417) were determined
Experimental: The IC50 values for the PHD2 enzyme (residues 181-417) were determined by mixing increasing amounts of an inhibitor with a fixed amount of enzyme (5 nM, final concentration) and Biotin-labeled peptide (Biotin-Asp-Leu-Glu-Met-Leu-Ala-Pro-Tyr-Ile-Pro-Met-Asp-Asp-Asp-Phe-Gln-Leu, 1 μM final concentration) and 2-oxyglutarate (2 μM final concentration) in 50 mM HEPES, 50 mM KCl, 0.5 mM TCEP, 2 μM FeCl2, 0.1 mg/mL BSA, at pH 7.3. The reaction was conducted by pre-incubating the enzyme in the presence of the inhibitor for 60 minutes at room temperature. The activity of the free enzyme was measured by adding the peptide, the 2-oxoglutarate, and ascorbic acid (1 mM final concentration). The enzymatic activity was quenched after 60 minutes by adding an excess of a tight binding inhibitor to the assay mixture. The amount of product released was measured by using a LC/MS system (Agilent HPLC with Applied Biosystems API3000 Mass Spectrometer). Data were analyzed using the classical isotherm equation for the determination of IC50 values and are reported in Table 1, below, as pIC50, i.e., −log(IC50), where IC50 is molar concentration of the test compound at 50% inhibition.
(§1) Table 1 lists biological data for some of the compounds shown in the examples, where larger pIC50 and pEC50 values represent higher potency or activity, respectively. The IC50 data (reported in Table 1 as pIC50) were obtained using the enzyme-based assay described in the specification under the heading “Inhibition of PHD2 Enzyme.” The EC50 data (reported in Table 1 as pEC50) were obtained using the cell-based assay described in the specification under the heading “Cell-based HIF-α Stabilization Assay.”

[2] = tested on: HIF1a protein content in H9c2 rat cardiomyocytes; assay: Cell-based HIF-α Stabilization Assay (HIF1a ELISA); conditions: H9c2 cells, 24 hours compound incubation, concentration giving 50% of desferrioxamine maximum response, -log(EC50), EC50 molar, read-out: Stabilization of HIF-α (pEC50) (converted)
Experimental: H9c2 rat cardiomyocytes (ATCC) were seeded in 96-well tissue culture microplates and cultured for 24 hours prior to addition of compounds (11 point range of serial dilutions) or DMSO vehicle. After 24 hours of compound incubation, whole cell extracts were prepared by lysing cells in cell extraction buffer containing protease and phosphatase inhibitors (Meso-Scale Discovery). HIF1a protein content was assessed by ELISA (Meso-Scale Discovery) and expressed as % relative to the maximum response obtained from the positive control, desferrioxamine (Sigma-Aldrich). EC50 for each compound was obtained by curve-fitting using XLfit4 MicroSoft Excel curve-fitting software to calculate the compound concentration that results in 50% of the desferrioxamine maximum response.
as §1

T1 sequence (Q9GZT9 181-417): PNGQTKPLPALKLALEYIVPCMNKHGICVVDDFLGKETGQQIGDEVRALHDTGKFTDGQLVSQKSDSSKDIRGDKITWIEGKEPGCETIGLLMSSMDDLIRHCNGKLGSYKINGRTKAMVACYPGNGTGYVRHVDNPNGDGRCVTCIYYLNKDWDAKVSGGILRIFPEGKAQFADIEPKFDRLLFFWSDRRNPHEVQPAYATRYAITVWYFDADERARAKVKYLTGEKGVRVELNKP

| IC50 [1] [nM] | Structure (SMILES) | EC50 [2] [nM] |
| --- | --- | --- |
| 39.8 | N#Cc1cnc(C(=O)N[C@@H]2CCc3cc(C#N)ccc32)c(O)c1 [Example 34, (R)-5-cyano-N-(5-cyano-2,3-dihydro-1H-inden-1-yl)-3-hydroxypicolinamide] | 12600 |
| 20 | Cc1cc(C#N)ccc1CNC(=O)c1ncc(F)cc1O [Example 35, N-(4-cyano-2-methylbenzyl)-5-fluoro-3-hydroxypicolinamide] | 25100 |
| 39.8 | Cc1cc(C#N)ccc1CNC(=O)c1ncc(Cl)cc1O [Example 36, 5-chloro-N-(4-cyano-2-methylbenzyl)-3-hydroxypicolinamide] | 25100 |
| 10 | COc1cnc(C(=O)NCc2ccc(C#N)cc2C)c(O)c1 [Example 38, N-(4-cyano-2-methylbenzyl)-3-hydroxy-5-methoxypicolinamide] | 7940 |
| 1580 | CC(NC(=O)c1ncccc1O)c1ccc(C#N)cc1 (stereo not shown) [Example 39, N-(1-(4-cyanophenyl)ethyl)-3-hydroxypicolinamide] | 50100 |
| 31.6 | COCCCNc1cnc(C(=O)NCc2c(C)cc(C#N)cc2C)c(O)c1 [Example 40, N-(4-cyano-2,6-dimethylbenzyl)-3-hydroxy-5-((3-methoxypropyl)amino)picolinamide] | 2510 |
| 79.4 | CCN1CCN(c2cnc(C(=O)NCc3c(C)cc(C#N)cc3C)c(O)c2)CC1 [Example 41, N-(4-cyano-2,6-dimethylbenzyl)-5-(4-ethylpiperazin-1-yl)-3-hydroxypicolinamide] | 6310 |
| 39.8 | Cc1cc(C#N)cc(C)c1CNC(=O)c1ncc(N2CCN(CC(F)F)CC2)cc1O [Example 42, N-(4-cyano-2,6-dimethylbenzyl)-5-(4-(2,2-difluoroethyl)piperazin-1-yl)-3-hydroxypicolinamide] | 3980 |
